From patent US7416848B2, “DNA encoding SNORF25 receptor” (H. Lundbeck A/S, priority 1999, dated 2008)

Key:
[1] = biological target: T1, SNORF25 (Homo sapiens, UniProt Q8TDV5); test: Stimulation of cAMP release by CHO cells stably expressing hSNORF25 receptors; type: cell-based; set-up: expressed in transfected cells
T1 sequence (Q8TDV5 1-335): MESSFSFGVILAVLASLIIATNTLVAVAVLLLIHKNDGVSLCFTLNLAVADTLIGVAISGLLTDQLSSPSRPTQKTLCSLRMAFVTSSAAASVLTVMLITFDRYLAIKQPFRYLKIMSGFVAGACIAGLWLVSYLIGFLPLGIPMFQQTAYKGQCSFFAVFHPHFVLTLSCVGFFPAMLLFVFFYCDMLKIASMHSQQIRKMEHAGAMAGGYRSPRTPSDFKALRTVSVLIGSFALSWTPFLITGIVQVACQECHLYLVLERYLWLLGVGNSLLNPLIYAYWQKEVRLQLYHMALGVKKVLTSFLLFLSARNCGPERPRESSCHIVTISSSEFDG
Method: CHO cells are grown on 150 mm plates in HAM's F-12 medium with supplements (10% bovine calf serum, 4 mM L-glutamine and 100 units/ml penicillin/100 μg/ml streptomycin) at 37° C., 5% CO2. Stock plates of CHO cells are trypsinized and split 1:8 every 3–4 days.
Heterologous DNA can be stably incorporated into host cells, causing the cell to perpetually express a foreign protein. Methods for the delivery of the DNA into the cell are similar to those described above for transient expression but require the co-transfection of an ancillary gene to confer drug resistance on the targeted host cell. The ensuing drug resistance can be exploited to select and maintain cells that have taken up the DNA. An assortment of resistance genes are available including but not restricted to neomycin, kanamycin, and hygromycin. For the purposes of studies concerning the receptor of this invention, stable expression of a heterologous receptor protein is typically carried out in, mammalian cells including but not necessarily restricted to, CHO, HEK293, LM(tk−), etc.
(§1) The receptor-mediated stimulation or inhibition of cyclic AMP (cAMP) formation may be assayed in cells expressing the receptors. According to one method, cells are plated in 96-well plates or other vessels and preincubated in a buffer such as HEPES buffered saline (NaCl (150 mM), CaCl2 (1mM), KCl (5 mM), glucose (10 mM)) supplemented with a phosphodiesterase inhibitor such as 5 mM theophylline, with or without protease inhibitor cocktail (For example, a typical inhibitor cocktail contains 2 μg/ml aprotinin, 0.5 mg/ml leupeptin, and 10 μg/ml phosphoramidon.) for 20 min at 37° C., in 5% CO2. Test compounds are added with or without […] and incubated for an additional 10 min at 37° C. The medium is then aspirated and the reaction stopped by the addition of 100 mM HCl or other methods. The plates are stored at 4° C. for 15 min, and the cAMP content in the stopping solution is measured by radioimmunoassay. Radioactivity may be quantified using a gamma counter equipped with data reduction software. Specific modifications may be performed to optimize the assay for the receptor or to alter the detection method of cAMP.
as §1, with “According” for “The receptor-mediated stimulation or inhibition of cyclic AMP (cAMP) formation may be assayed in cells expressing the receptors. According”, “a second” for “one”, “washed 2 times with” for “plated in 96-well plates or other vessels and preincubated in a buffer such as”, “saline, as described above, and incubated overnight. On the day of the experiment, cells are washed 2 times with HEPES” for “saline (NaCl (150 mM), CaCl2 (1mM), KCl (5 mM), glucose (10 mM))”
Several other closely related analogues of PAF namely Lyso-PAF with different carbon chains also stimulated cAMP.

[2] = biological target: T2, dopamine D5 receptor (Homo sapiens, UniProt P21918); test: cAMP in Cos-7 cells transfected with dopamine D5 receptor; type: cell-based; conditions: 10 μM, dopamine D5 (FIG. 7)
T2 construct: expressed in transfected cells; host or cells: Cos-7 cells
T2 sequence (P21918 whole entry): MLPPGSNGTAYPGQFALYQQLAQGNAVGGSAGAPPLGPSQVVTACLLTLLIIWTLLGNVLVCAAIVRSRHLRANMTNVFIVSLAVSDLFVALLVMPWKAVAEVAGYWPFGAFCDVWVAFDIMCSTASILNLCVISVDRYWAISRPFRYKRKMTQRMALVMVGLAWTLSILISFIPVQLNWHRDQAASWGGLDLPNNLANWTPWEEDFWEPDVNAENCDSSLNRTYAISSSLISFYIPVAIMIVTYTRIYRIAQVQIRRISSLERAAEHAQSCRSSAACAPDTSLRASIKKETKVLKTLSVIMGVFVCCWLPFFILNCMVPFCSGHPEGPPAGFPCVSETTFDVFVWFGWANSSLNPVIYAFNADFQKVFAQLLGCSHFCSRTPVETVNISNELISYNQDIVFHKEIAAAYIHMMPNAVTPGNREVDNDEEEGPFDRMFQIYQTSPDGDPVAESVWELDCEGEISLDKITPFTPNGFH
Method: (§2) A typical protocol for the electroporation method as applied to Cos-7 cells is described as follows. Cells to be used for transfection are split 24 hours prior to the transfection to provide flasks which are subconfluent at the time of transfection. The cells are harvested by trypsinization resuspended in their growth media and counted. 5×10^6 cells are suspended in 300 μl of DMEM and placed into an electroporation cuvette. 8 μg of receptor DNA plus 8 μg of any additional DNA needed (e.g. G protein expression vector, reporter construct, antibiotic resistance marker, mock vector, etc.) is added to the cell suspension, the cuvette is placed into a BioRad Gene Pulser and subjected to an electrical pulse (Gene Pulser settings: 0.25 kV voltage, 950 μF capacitance). Following the pulse, 800 μl of complete DMEM is added to each cuvette and the suspension transferred to a sterile tube. Complete medium is added to each tube to bring the final cell concentration to 1×10^5 cells/100 μl. […]
(§3) The receptor-mediated stimulation or inhibition of cyclic AMP (cAMP) formation may be assayed in cells expressing the receptors. […] The plates are stored at 4° C. for 15 min, and the cAMP content in the stopping solution is measured by radioimmunoassay. Radioactivity may be quantified using a gamma counter equipped with data reduction software. […]

[3] = biological target: T3, serotonin 5-HT4 receptor (Homo sapiens, UniProt Q13639); test: cAMP in Cos-7 cells transfected with serotonin 5-HT4 receptor; type: cell-based; conditions: 10 μM, serotonin 5-HT4 (FIG. 7)
T3 construct: expressed in transfected cells; host or cells: Cos-7 cells
T3 sequence (Q13639 whole entry): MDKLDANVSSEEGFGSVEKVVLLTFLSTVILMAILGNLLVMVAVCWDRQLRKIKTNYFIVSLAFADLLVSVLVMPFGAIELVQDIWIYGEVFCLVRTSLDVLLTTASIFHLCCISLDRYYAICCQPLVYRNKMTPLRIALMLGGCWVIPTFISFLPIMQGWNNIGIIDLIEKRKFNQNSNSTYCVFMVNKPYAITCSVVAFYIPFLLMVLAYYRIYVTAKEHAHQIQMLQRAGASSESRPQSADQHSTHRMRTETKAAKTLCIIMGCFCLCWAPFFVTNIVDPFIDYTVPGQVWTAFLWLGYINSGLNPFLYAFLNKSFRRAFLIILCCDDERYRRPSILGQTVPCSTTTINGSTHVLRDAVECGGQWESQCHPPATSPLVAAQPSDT
Method: as §2, §3

[4] = biological target: T4, dopamine D1 receptor (Homo sapiens, UniProt P21728); test: cAMP in Cos-7 cells transfected with dopamine D1 receptor; type: cell-based; conditions: 10 μM, dopamine D1 (FIG. 7)
T4 construct: expressed in transfected cells; host or cells: Cos-7 cells
T4 sequence (P21728 whole entry): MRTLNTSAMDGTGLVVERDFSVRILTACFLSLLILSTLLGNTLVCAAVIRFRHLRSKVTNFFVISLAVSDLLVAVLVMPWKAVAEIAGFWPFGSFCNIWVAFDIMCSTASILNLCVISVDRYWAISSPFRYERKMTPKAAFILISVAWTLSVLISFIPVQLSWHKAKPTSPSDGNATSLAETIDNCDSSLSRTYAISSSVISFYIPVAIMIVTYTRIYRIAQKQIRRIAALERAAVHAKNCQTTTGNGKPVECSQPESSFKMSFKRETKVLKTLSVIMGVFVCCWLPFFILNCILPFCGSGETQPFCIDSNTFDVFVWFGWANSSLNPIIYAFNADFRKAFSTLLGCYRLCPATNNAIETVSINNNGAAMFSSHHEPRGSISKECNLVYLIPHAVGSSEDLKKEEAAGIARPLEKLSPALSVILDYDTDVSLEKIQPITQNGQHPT
Method: as §2, §3

[5] = tested on: control (CFTR alone) oocytes; test: CFTR Cl- currents in control oocytes injected with only CFTR mRNA; type: cell-based, Xenopus laevis; conditions: 10 μM

`CC1=C(/C=C/C(C)=C/C=C/C(C)=C/C(=O)O)C(C)(C)CCC1` [ATRA, all-trans-retinoic acid] was tested, and the “potency lower than PAF(C18)” value ([1]; cAMP release, SNORF25 stable CHO cells (FIG. 11B)) was about 3 fold, the “% of PAF(C18) Response” value ([1]; maximum response as % of maximum response produced by PAF(C18) (taken as 100%)) was 105% and the EC50 ([1]; mean ± S.E.M., at least 3 experiments, CHO cells stably expressing hSNORF25) was 1.44 ± 0.652 µM. The cAMP response [2] was “no response”, the cAMP response [3] was “no response” and the cAMP response [4] was “no response”. The “current response in oocytes injected with only CFTR mRNA” value [5] was “no such current was observed”.
